From US4835287A, “Antibiotic substance” (SS Pharmaceutical Co., Ltd., priority 1987, dated 1989)
Values after ≈ are worked out from the molar mass of the structure shown.

Tests used:
[1] = test system: Staphylococcus epidermidis ATCC 12228; test: Antimicrobial activity (MIC); assay type: cell-based; conditions: ATCC12228, read-out: Minimal Inhibitory Concentrations (MICs)
Solubility to solvents = assay type: physicochemical
[2] = test system: Trichophyton tonsurans IFO 5928; test: Antimicrobial activity (MIC); assay type: cell-based; conditions: IFO5928, read-out: Minimal Inhibitory Concentrations (MICs)
[3] = test system: Staphylococcus aureus Terajima; test: Antimicrobial activity (MIC); assay type: cell-based; conditions: read-out: Minimal Inhibitory Concentrations (MICs)
[4] = test system: Staphylococcus aureus 209P; test: Antimicrobial activity (MIC); assay type: cell-based; conditions: read-out: Minimal Inhibitory Concentrations (MICs)
Serratia marcescens NHL = test: Antimicrobial activity (MIC); assay type: cell-based; conditions: read-out: Minimal Inhibitory Concentrations (MICs)
mouse leukemia P-388 = test: Antitumor activity (life prolongation) on mouse leukemia P-388; assay type: in vivo; conditions: i.p. once a day ten times, CDF1 male mice, P-388 i.p.
Method: Curing effects of substances SS42227A and B on mouse leukemia P-388 were examined according to the following method. In the Table, the antitumor activities, or the effect of life prolongation, are expressed as the percentage of the survival time (days) of treated groups (T) per the survival time (days) for the untreated or control group (C).
CDF1 (male: supplied by Charles River Japan Inc.) were inoculated intraperitoneally with 1×10^6 P-388 cells. Then, commencing at 24 hours thereafter, substance SS42227A was intraperitoneally injected into the mice once a day and ten times in total.

Proteus rettgeri = test: Antimicrobial activity (MIC); assay type: cell-based; conditions: Providencia rettgeri, read-out: Minimal Inhibitory Concentrations (MICs)
Escherichia coli 0-1 = test: Antimicrobial activity (MIC); assay type: cell-based; conditions: 01, read-out: Minimal Inhibitory Concentrations (MICs)
[5] = test system: Candida albicans NHL 4019; test: Antimicrobial activity (MIC); assay type: cell-based; conditions: NHL4019, read-out: Minimal Inhibitory Concentrations (MICs)
[6] = test system: Pyricularia oryzae IAM 5016; test: microbe, parasite or virus in culture; assay type: cell-based; conditions: IAM5016, read-out: Minimal Inhibitory Concentrations (MICs)
[7] = test system: Streptococcus faecalis IFO 12964; test: Antimicrobial activity (MIC); assay type: cell-based; conditions: Enterococcus faecalis, IFO12964, read-out: Minimal Inhibitory Concentrations (MICs)
[8] = test system: Klebsiella pneumoniae ATCC 10031; test: Antimicrobial activity (MIC); assay type: cell-based; conditions: ATCC10031, read-out: Minimal Inhibitory Concentrations (MICs)
[9] = test system: Bacillus subtilis ATCC 6633; test: Antimicrobial activity (MIC); assay type: cell-based; conditions: ATCC6633, read-out: Minimal Inhibitory Concentrations (MICs)
[10] = test system: Staphylococcus aureus Smith; test: Antimicrobial activity (MIC); assay type: cell-based; conditions: read-out: Minimal Inhibitory Concentrations (MICs)
[11] = test system: Micrococcus lysodeikticus IFO 3333; test: Antimicrobial activity (MIC); assay type: cell-based; conditions: Micrococcus luteus, IFO3333, read-out: Minimal Inhibitory Concentrations (MICs)
[12] = Property as to basic, acid or neutral; assay type: physicochemical
Sarcina lutea ATCC 9341 = test: Antimicrobial activity (MIC); assay type: cell-based; conditions: Micrococcus luteus, ATCC9341, read-out: Minimal Inhibitory Concentrations (MICs)
[13] = test system: Aspergillus niger ATCC 9642; test: Antimicrobial activity (MIC); assay type: cell-based; conditions: ATCC9642, read-out: Minimal Inhibitory Concentrations (MICs)
[14] = test system: Pseudomonas aeruqinosa IFO 13736; test: Antimicrobial activity (MIC); assay type: cell-based; conditions: IFO13736, read-out: Minimal Inhibitory Concentrations (MICs)
Shigella flexneri 2b = test: Antimicrobial activity (MIC); assay type: cell-based; conditions: read-out: Minimal Inhibitory Concentrations (MICs)

SMILES | MIC [1] [µg/mL] | Solubility to solvents (Solubility to solvents; acetone) | Solubility to solvents (Solubility to solvents; chloroform) | Solubility to solvents (Solubility to solvents; diethyl ether) | Solubility to solvents (Solubility to solvents; ethyl acetate) | Solubility to solvents (Solubility to solvents; methanol) | Solubility to solvents (Solubility to solvents; n-hexane) | Solubility to solvents (Solubility to solvents; water) | MIC [2] [µg/mL] | MIC [3] [µg/mL] | MIC [4] [µg/mL] | MIC (Serratia marcescens NHL) [µg/mL] | MIC (Proteus rettgeri) [µg/mL] | MIC (Escherichia coli 0-1) [µg/mL] | MIC [5] [µg/mL] | MIC [6] [µg/mL] | MIC [7] [µg/mL] | MIC [8] [µg/mL] | MIC [9] [µg/mL] | MIC [10] [µg/mL] | other results
COc1cc(C(=O)OC(C(=O)NC(C(=O)NCC(C)=O)=C2C(OC(C)=O)C(O)C3CN23)C2(C)CO2)c2cccc(C)c2c1 (stereo not shown) [SS42227A] | 6.25 (≈ 10.5 µM) | Soluble | Soluble | Soluble | Soluble | Soluble | Sparingly soluble | Sparingly soluble | > 100 | 6.25 (≈ 10.5 µM) | 6.25 (≈ 10.5 µM) | 100 (≈ 168 µM) | 100 (≈ 168 µM) | > 100 | > 100 | 100 (≈ 168 µM) | 0.78 (≈ 1.31 µM) | 3.12 (≈ 5.24 µM) | 0.78 (≈ 1.31 µM) | 1.56 (≈ 2.62 µM) | Antitumor Activity T/C (survival time treated/control) (mouse leukemia P-388; 2 μg/kg/day): 163%; Antitumor Activity T/C (survival time treated/control) (mouse leukemia P-388; 4 μg/kg/day): 144%; Antitumor Activity T/C (survival time treated/control) (mouse leukemia P-388; 8 μg/kg/day): 154%; Antitumor Activity T/C (survival time treated/control) (mouse leukemia P-388; 15 μg/kg/day): 192%; Antitumor Activity T/C (survival time treated/control) (mouse leukemia P-388; 15.1 μg/kg/day): 170%; Antitumor Activity T/C (survival time treated/control) (mouse leukemia P-388; 30 μg/kg/day): 211%; Antitumor Activity T/C (survival time treated/control) (mouse leukemia P-388; 31.2 μg/kg/day): 195%; Antitumor Activity T/C (survival time treated/control) (mouse leukemia P-388; 60 μg/kg/day): 77%; Antitumor Activity T/C (survival time treated/control) (mouse leukemia P-388; 62.5 μg/kg/day): 152%; MIC [11]: < 0.2 µg/mL; Property as to basic, acid or neutral [12]: Neutral; MIC (Sarcina lutea ATCC 9341): < 0.2 µg/mL; MIC [13]: > 100 µg/mL; MIC [14]: > 100 µg/mL; MIC (Shigella flexneri 2b): < 0.2 µg/mL
COc1cc(C(=O)OC(C(=O)NC(C(=O)NC(=CO)C(C)=O)=C2C(OC(C)=O)C(O)C3CN23)C2(C)CO2)c2cccc(C)c2c1 (stereo not shown) [SS42227B] | 100 (≈ 160 µM) | Soluble | Soluble | Sparingly soluble | Soluble | Soluble | Sparingly soluble | Sparingly soluble | > 100 | 50 (≈ 80.2 µM) | 50 (≈ 80.2 µM) | > 100 | > 100 | > 100 | > 100 | > 100 | 0.78 (≈ 1.25 µM) | 50 (≈ 80.2 µM) | 50 (≈ 80.2 µM) | 1.56 (≈ 2.5 µM) | MIC [11]: < 0.2 µg/mL; Property as to basic, acid or neutral [12]: Acid; MIC (Sarcina lutea ATCC 9341): < 0.2 µg/mL; MIC [13]: > 100 µg/mL; MIC [14]: > 100 µg/mL; MIC (Shigella flexneri 2b): 0.78 µg/mL (≈ 1.25 µM)
